Data set [1] has as its system transgenic C. parvum that express NanoLuciferase. The data set is described as follows: IFN-Gamma KO mouse acute efficacy model. Type of data set: in vivo. The following applies: DDD489, DDD508 50 mg/kg BID; DDD706 20 mg/kg QD; oral 7 days from day 6 PI. As for the experimental part: First, compounds were tested in the acute cryptosporidiosis mouse model, IFN-Gamma KO.([16]) In this model, infection peaks at approximately 10-12 days PI, and resolves within a month. Mice were infected with a strain of transgenic C. parvum that expresses NanoLuciferase (NLuc).([12]) Mice were treated orally for 7 days starting on day 6 PI (Fig. 4A) and a NanoLuciferase assay was used to determine parasite shedding in feces (RLUs/g). Control mice received either vehicle (Fig. 4B, white) or positive control, DDD706 (Fig. 4B, black; NLuc parasites are genetically engineered to be resistant to paromomycin, so DDD706 serves as the positive control) at 20 mg/kg QD; DDD489 and DDD508 were tested at 50 mg/kg BID.
Male IFN-Gamma knockout mice (B6.129S7-Ifng^tmlTS/J, JAX 002287; purchased from Jackson Labs and bred at the University of Dundee) aged 30 weeks old were used, (n = 5 mice per experimental group). Mice were infected by oral gavage (100 oocysts of Δtk::mNeon-Neo^R as described previously([12])). Compounds were prepared in HMPC without DMSO and administered by oral gavage at 50 mg/kg starting day 6 PI. Early lead compound DDD706 served as the positive control (administered at 20 mg/kg QD). Fecal samples were pooled from all mice in the cage on days indicated. Oocyst shedding in feces was determined by NanoLuciferase assay (20 mg of fecal material was homogenized in 1 ml of lysis buffer and assayed for NLuc activity as previously described).([12])

For another data set, the target named is CpKRS (Cryptosporidium parvum, UniProt Q5CR27). The data set is described as follows: CpKRS in vitro enzyme assay.
Chain of CpKRS (Q5CR27 entry or part of it): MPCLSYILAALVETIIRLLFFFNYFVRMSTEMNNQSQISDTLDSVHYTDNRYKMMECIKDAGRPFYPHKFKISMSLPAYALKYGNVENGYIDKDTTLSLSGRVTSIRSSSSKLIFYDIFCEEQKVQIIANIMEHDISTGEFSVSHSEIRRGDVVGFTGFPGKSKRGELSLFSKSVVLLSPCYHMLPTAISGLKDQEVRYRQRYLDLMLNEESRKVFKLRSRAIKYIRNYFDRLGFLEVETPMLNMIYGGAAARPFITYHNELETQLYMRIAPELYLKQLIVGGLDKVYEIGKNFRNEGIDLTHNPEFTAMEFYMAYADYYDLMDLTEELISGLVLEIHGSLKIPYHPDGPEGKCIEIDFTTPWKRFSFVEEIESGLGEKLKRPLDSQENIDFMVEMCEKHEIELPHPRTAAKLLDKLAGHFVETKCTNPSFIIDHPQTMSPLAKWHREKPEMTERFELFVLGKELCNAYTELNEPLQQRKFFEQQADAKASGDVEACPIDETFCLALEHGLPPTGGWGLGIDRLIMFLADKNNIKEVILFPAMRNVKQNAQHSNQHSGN
For the next data set, the target named is CYP450 2D6 (Homo sapiens, UniProt P10635). The data set is described as follows: CYP450 inhibition 2D6. Type of data set: in vitro ADME. As for the experimental part:
(§1) CYP450 inhibition (Dundee)
(§2) As previously described.(31)
(§3) DDD489 and DDD508 were evaluated for their ability to induce reverse mutations both in the presence and absence of S9 mix at the histidine locus in the genome of four strains of Salmonella typhimurium (TA98, TA100, TA1535, and TA97a) and at the tryptophan locus in the genome of Escherichia coli WP2 uvrA in a mini-Ames study conducted at WuXi App Tec […]
(§4) hERG inhibition (WuXi App Tec)
(§5) DDD489 and DDD508 were evaluated for their effects on cloned hERG potassium channels stably expressed in Chinese Hamster Ovary (CHO) cells using manual patch-clamp technique in a hERG inhibition assay conducted at WuXi App Tec (Suzhou).
(§6) Mitochondrial toxicity (Cyprotex)
(§7) DDD489 and DDD508 were evaluated for their effects on mitochondrial function in a functional mitochondrial toxicity assay using Seahorse XFe96 flux analyser conducted at […]
(§8) 44 screen safety panel (Eurofins)
(§9) DDD489 was evaluated for off-target effects in a SafetyScreen44 panel at Eurofins Cerep.
(§10) All regulated procedures, at the University of Dundee, on living animals were carried out under the authority of a project license issued by the Home Office under the Animals (Scientific Procedures) Act 1986, as amended in 2012 (and in compliance with EU Directive EU/2010/63). […]

Data set [2] can be described thus: Plasma protein binding, rat. Type of data set: in vitro ADME. The following applies: read-out: PPB (r) (converted).
The nature of a further data set: FaSSIF solubility. Type of data set: physicochemical. Conditions: Fasted State Simulated Intestinal Fluid.
Data set [3] is described as follows: Liver microsomal intrinsic clearance, bovine. Type of data set: in vitro ADME. The following applies: bovine liver microsomes. On the technique in general: Microsomes from liver hold many membrane-bound enzymes, among them those of drug oxidation.
A further data set deals with C. parvum. The data set is described as follows: microbe, parasite or virus in culture. Type of data set: cell-based, Cryptosporidium parvum. Conditions: for EC90: HCT-8, read-out: C. parvum EC90.
A short description of data set [4]: Plasma protein binding, human. The following applies: read-out: PPB (h) (converted). Type of data set: in vitro ADME.
The next data set addresses CYP450 2C19 (Homo sapiens, UniProt P33261). The data set is described as follows: CYP450 inhibition 2C19. Type of data set: in vitro ADME. The protocol: as §1, §2, §3, §4, §5, §6, §7, §8, §9, §10
A further data set concerns the target T1, HsKRS (Homo sapiens, UniProt Q15046).
T1 construct: made in house
The data set is described as follows: HsKRS in vitro enzyme assay. Type of data set: biochemical. The following applies: mean (95% confidence interval).

The target in another data set is T2, hERG potassium channels (Homo sapiens, UniProt Q12809).
T2 construct: host or cells: Chinese Hamster Ovary (CHO) cells
T2 sequence (Q12809 whole entry): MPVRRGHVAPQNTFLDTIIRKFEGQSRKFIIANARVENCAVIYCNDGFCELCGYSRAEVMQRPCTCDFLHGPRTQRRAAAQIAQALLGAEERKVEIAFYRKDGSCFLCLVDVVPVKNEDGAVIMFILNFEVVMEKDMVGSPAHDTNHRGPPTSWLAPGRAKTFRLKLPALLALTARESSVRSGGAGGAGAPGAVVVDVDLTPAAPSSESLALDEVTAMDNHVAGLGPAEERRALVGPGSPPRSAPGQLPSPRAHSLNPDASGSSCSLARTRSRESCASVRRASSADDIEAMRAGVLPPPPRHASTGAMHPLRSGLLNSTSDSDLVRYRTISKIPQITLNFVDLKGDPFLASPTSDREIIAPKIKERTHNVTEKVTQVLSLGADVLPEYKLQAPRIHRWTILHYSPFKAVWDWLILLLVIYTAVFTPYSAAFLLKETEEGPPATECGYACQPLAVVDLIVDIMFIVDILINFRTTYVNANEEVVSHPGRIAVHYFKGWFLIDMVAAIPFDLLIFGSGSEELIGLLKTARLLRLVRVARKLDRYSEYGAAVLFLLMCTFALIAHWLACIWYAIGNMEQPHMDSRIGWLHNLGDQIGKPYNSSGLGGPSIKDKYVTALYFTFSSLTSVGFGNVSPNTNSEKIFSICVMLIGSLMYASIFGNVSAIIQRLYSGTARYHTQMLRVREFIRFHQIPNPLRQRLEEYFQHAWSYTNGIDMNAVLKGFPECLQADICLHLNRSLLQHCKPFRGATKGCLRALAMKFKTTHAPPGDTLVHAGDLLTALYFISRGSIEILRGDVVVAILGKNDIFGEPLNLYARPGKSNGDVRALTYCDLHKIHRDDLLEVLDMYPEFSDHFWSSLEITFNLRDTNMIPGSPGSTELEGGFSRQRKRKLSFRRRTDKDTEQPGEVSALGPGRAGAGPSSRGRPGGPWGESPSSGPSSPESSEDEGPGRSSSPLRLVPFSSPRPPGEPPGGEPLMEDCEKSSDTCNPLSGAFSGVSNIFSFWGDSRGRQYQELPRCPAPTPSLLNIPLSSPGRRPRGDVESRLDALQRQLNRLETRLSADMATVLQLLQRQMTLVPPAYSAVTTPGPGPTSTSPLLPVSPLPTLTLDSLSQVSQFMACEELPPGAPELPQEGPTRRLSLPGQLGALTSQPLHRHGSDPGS
The data set is described as follows: hERG inhibition, manual patch-clamp. Type of data set: cell-based. Conditions: CHO cells. The protocol:
as §4
DDD489 and DDD508 were evaluated for their effects on cloned hERG potassium channels stably expressed in Chinese Hamster Ovary (CHO) cells using manual patch-clamp technique in a hERG inhibition assay conducted at WuXi App Tec (Suzhou). […]

The nature of data set [5]: Aqueous (kinetic) solubility by UHPLC. Type of data set: physicochemical. The following applies: 25 °C, aqueous buffer, kinetic from dmso stock, PBS pH 7.4, UHPLC. As for the experimental part:
As previously described.(27) […]
samples were prepared by adding 5 µL stock to PBS pH 7.4 (195 µL). This solution was mixed […]
The solubility test samples were […]
vacuum ﬁ ltered (Millipore Multiscreen HTS ﬁ lter, 96-well format) to remove any undissolved […]
material. The ﬁ ltrate was analyzed for dissolved drug compound using a truncated UHPLC […]
methodology. A calibration solution was prepared for each test compound. The 10 mM stock […]
solution was diluted in DMSO to give a 500 µM solution. This was further diluted with 50:50 […]
acetonitrile:water to give a 50 µM solution. Aliquots (0.2, 2.0, and 5.0 µL) of this 50 µM solution were injected onto the UHPLC system, and the areas of the resultant peaks were […]
integrated to produce a calibration line. Aliquots of the test sample ﬁ ltrate (0.4 and 5.0 µL) […]
were injected onto the UHPLC system and the resultant test compound peak areas quantiﬁ ed […]
using the calibration line. […]

A short description of data set [6]: Hepatocyte intrinsic clearance, rat. Type of data set: in vitro ADME. The following applies: rat hepatocytes.
Data set [7] in a line: Hepatocyte intrinsic clearance, dog. Type of data set: in vitro ADME. The following applies: dog hepatocytes.
A short description of data set [8]: Hepatocyte intrinsic clearance, mouse. Type of data set: in vitro ADME. The following applies: mouse hepatocytes.
Setting [9] is: Cryptosporidium parvum, HCT-8, 48 h, read-out: C. parvum EC50, co-cultured with HCT-8 cells for 48 hrs.
Where [10] appears, read: read-out: C. parvum EC50, co-cultured with HCT-8 cells for 48 hrs.

For orientation: IC50 means the midpoint of a concentration-inhibition curve. One may read the solubility as how much of the substance goes into solution per volume. High values mean much dissolved substance, low ones little dissolved substance. As usually defined, the EC50 is the concentration giving half of the maximal effect. What is called EC90 is the concentration at which the effect reaches the 90% level.

Converted amounts (≈) assume the structure as drawn. Where two headings read alike, the source gives them in different places.

T1 sequence (Q15046 whole entry): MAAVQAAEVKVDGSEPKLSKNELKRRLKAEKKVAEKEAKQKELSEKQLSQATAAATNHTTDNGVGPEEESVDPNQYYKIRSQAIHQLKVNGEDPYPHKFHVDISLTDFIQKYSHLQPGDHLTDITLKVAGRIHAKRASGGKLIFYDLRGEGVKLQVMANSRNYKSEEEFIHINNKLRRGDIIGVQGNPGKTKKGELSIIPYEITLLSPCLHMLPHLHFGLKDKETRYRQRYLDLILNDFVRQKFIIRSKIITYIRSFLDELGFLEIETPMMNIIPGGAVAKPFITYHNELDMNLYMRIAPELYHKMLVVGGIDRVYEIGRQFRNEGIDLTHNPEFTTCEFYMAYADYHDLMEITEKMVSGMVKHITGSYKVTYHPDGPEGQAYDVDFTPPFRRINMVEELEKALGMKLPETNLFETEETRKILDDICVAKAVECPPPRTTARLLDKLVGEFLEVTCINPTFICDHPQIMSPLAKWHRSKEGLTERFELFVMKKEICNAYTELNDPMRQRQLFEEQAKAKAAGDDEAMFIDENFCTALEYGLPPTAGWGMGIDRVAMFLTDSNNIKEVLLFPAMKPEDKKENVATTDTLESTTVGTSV
Chain of CYP450 2C19 (P33261 whole entry): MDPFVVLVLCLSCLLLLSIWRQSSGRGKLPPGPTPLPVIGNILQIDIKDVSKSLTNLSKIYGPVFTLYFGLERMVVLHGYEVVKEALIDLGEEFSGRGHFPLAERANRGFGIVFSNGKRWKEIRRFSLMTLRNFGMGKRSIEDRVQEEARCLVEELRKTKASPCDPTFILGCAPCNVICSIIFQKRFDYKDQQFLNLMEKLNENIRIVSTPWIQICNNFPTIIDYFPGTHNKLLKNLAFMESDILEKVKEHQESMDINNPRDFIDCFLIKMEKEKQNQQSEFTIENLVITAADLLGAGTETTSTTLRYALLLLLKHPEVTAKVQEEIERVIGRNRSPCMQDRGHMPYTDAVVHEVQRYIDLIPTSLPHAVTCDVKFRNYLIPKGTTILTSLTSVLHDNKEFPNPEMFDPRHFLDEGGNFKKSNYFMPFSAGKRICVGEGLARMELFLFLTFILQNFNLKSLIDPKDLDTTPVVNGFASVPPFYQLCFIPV
Chain of CYP450 2D6 (P10635 whole entry): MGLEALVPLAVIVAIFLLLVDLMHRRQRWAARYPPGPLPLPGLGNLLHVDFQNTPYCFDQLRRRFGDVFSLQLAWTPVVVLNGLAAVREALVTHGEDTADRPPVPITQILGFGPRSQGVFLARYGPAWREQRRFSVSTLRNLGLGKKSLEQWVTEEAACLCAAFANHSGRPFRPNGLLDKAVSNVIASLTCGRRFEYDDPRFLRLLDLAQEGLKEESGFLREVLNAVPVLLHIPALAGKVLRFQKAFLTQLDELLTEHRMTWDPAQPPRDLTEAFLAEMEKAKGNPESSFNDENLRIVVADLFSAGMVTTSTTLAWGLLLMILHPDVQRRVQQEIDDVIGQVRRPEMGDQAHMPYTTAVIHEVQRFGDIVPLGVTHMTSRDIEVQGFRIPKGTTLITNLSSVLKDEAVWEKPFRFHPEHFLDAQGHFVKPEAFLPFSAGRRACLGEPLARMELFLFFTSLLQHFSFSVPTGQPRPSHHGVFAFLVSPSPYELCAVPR
Experimental for CpKRS: CpKRS in vitro enzyme assay (Dundee)
Potency of compounds was determined in 10-point dose-response inhibition curves.
Echo 550 acoustic dispenser (Labcyte). KRS reactions were started by adding enzyme into wells containing substrate and compounds using a Thermo Scientiﬁ c Matrix Wellmate. KRS assays were run in 50 µL reactions (Final concentration: 100 mM HEPES*K pH 7.4, 20 mM
Pyrophosphatase) at room temperature for 7 h. Reactions were stopped by the addition of Biomol green (50 µL: Enzo Life Sciences) with the amount of free phosphate detected by
Samples were all run in duplicate and data was processed and analyzed using ActivityBase

For the molecule `Nc1nc2c(c(C(F)(F)F)n1)C(=O)N(CC1CCCC(C(F)(F)F)C1)C2` (stereo not drawn) [DDD489], the “parasite shedding during treatment period” value in data set [1] is listed as “reduced parasite shedding below the LOQ”. Moreover, the recrudescence entry in [1] was “able to prevent parasite recrudescence”. The IC50 is 850 nM against CpKRS; 8000 nM at CYP450 2D6; over 100000 nM against CYP450 2C19; 22000 nM against HsKRS; over 30000 nM against hERG potassium channels. Also, the fraction unbound was 0.42 in [2] and 0.23 in data set [4]. In the data set “FaSSIF solubility”, this molecule displayed a solubility of 48 µM (≈ 18.4 µg/mL). In addition, the “Mics CLi (b)” value in [3] is given as 25 mL/min/g. In addition, the EC50 is 43 nM with C. parvum (setting [9]) and 40 nM in the data set on C. parvum (setting [10]). For the same molecule, the concentration for an effect of 90% (EC90) in the data set with C. parvum (Cryptosporidium parvum) is 100 nM. In data set [5], this molecule yielded a solubility at 24 h of 21 µM (≈ 8.03 µg/mL). For the same molecule, in data set [6], the “Heps CLi (r)” value is given as 1.9 mL/min/g. The “Heps CLi (d)” value in data set [7] amounted to 1.8 mL/min/g. For the same molecule, the “Heps CLi (m)” value in data set [8] is recorded as 10 mL/min/g.
On to `O=C(NCC1(O)CCCCC1)c1cc(=O)c2cc(O)ccc2o1` [DDD508], for which, in [1], the “parasite shedding during treatment period” value is reported as “reduced parasite shedding below the limit of quantitation (LOQ)”. Moreover, in [1], the recrudescence entry is listed as “unable to prevent recrudescence”. Moreover, the IC50 at CpKRS is 1700 nM; against CYP450 2D6 it was over 100000 nM; against CYP450 2C19 it was over 100000 nM; at HsKRS it was 10000 nM; against hERG potassium channels, over 30000 nM. For the same molecule, the fraction unbound in [2] was 0.47; in data set [4], 0.42. This molecule also registered a solubility in the data set “FaSSIF solubility” of 325 µM (≈ 103 µg/mL). For the same molecule, the “Mics CLi (b)” value in data set [3] is on record as under 0.5 mL/min/g. Besides, the EC50 came to 132 nM with C. parvum (setting [9]) and 130 nM in the data set with C. parvum (setting [10]). Also, in the data set with C. parvum (Cryptosporidium parvum), the EC90 was determined as 380 nM. In addition, the solubility at 24 h in data set [5] worked out at 184 µM (≈ 58.4 µg/mL). Moreover, the “Heps CLi (r)” value in data set [6] came to 1.1 mL/min/g. In data set [7], the “Heps CLi (d)” value amounted to 1.2 mL/min/g. Further, the “Heps CLi (m)” value in [8] is given as 3.7 mL/min/g.

These data come from publication PMC7617456, “Cryptosporidium lysyl-tRNA synthetase inhibitors define the interplay between solubility and permeability required to achieve efficacy” (Science translational medicine, 2024).
